{
  "source": "patent US20120214822A1",
  "about": "(ASTRAZENECA AB, priority 2007, published 2012)",
  "data": [
    {"target": "human active recombinant p38α-6His tagged (Homo sapiens, UniProt Q16539)", "sequence (Q16539 whole entry)": "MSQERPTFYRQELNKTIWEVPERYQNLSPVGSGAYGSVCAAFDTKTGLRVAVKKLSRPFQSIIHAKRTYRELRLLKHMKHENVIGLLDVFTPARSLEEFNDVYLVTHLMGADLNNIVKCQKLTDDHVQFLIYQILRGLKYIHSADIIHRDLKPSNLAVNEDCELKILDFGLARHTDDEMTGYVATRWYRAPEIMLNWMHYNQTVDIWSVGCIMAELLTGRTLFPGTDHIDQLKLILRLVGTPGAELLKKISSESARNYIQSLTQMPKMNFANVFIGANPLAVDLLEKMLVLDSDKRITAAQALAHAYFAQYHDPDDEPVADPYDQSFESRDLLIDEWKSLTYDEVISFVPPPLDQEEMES", "assay": "P38 Alpha Enzyme Assay (AlphaScreen, biotinylated-ATF2 substrate);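 note: 0.5 nM final p38α, reaction started with ATP and run 45 min at 37 °C, phospho-ATF2 read by antibody-based AlphaScreen, background wells quenched with EDTA before ATP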", "type": "biochemical", "conditions": "p38 alpha enzyme inhibition; means of replicate determinations; 4 h pre-incubation at 37° C.; SD of assay 0.2-0.3 log units", "values": [
      {"smiles": "Cc1ccc(C(=O)NC2CC2)cc1-n1ccnc(N[C@@H](c2ccccc2)[C@@H](C)CN2CCNC(=O)C2)c1=O", "note": "[Example 178, N-Cyclopropyl-4-methyl-3-[3-[[(1R,2S)-2-methyl-3-(3-oxo-1-piperazinyl)-1-phenylpropyl]amino]-2-oxo-1(2H)-pyrazinyl]-benzamide]", "pIC50": 8.8},
      {"smiles": "Cc1ccc(C(=O)NC2CC2)cc1-n1ccnc(NC(C)(C)c2ccccc2OCCNC(C)C)c1=O", "note": "[Example 212, N-Cyclopropyl-4-methyl-3-[3-[[1-methyl-1-[2-[2-[(1-methylethyl)amino]ethoxy]phenyl]ethyl]amino]-2-oxo-1(2H)-pyrazinyl]-benzamide]", "pIC50": 9.6},
      {"smiles": "Cc1ccc(C(=O)NC2CC2)cc1-n1ccnc(NC2(c3ccccc3OCCNC[C@H](C)O)CC2)c1=O", "note": "[Example 230, N-Cyclopropyl-3-[3-[[1-[2-[2-[[(2S)-2-hydroxypropyl]amino]ethoxy]phenyl]cyclopropyl]amino]-2-oxo-1(2H)-pyrazinyl]-4-methyl-benzamide]", "pIC50": 10},
      {"smiles": "CCc1ccc(C(=O)NC2CC2)cc1-n1ccnc(NC(C)(C)c2ccccc2OCCNCCO)c1=O", "note": "[Example 291, N-Cyclopropyl-4-ethyl-3-[3-{[1-(2-{2-[(2-hydroxyethyl)amino]ethoxy}phenyl)-1-methylethyl]amino}-2-oxopyrazin-1(2H)-yl]benzamide]", "pIC50": 8.5},
      {"smiles": "CNCCOc1ccc(F)cc1C1(Nc2nccn(-c3cc(C(=O)NC4CC4)cc(F)c3C)c2=O)CC1", "note": "[Example 281, N-Cyclopropyl-3-fluoro-5-{3-[(1-{5-fluoro-2-[2-(methylamino)ethoxy]phenyl}cyclopropyl)amino]-2-oxopyrazin-1(2H)-yl}-4-methylbenzamide]", "pIC50": 10.4},
      {"smiles": "Cc1ccc(C(=O)NC2CC2)cc1-n1ccnc(NCc2ccccc2-c2ccccc2)c1=O", "note": "[Example 44, 3-[3-[([1,1′-Biphenyl]-2-ylmethyl)amino]-2-oxo-1(2H)-pyrazinyl]-N-cyclopropyl-4-methyl-benzamide]", "pIC50": 7.6},
      {"smiles": "Cc1ccc(C(=O)NC2CC2)cc1-n1cc(Cl)nc(NCCc2ccccc2)c1=O", "note": "[Example 110, 3-[5-Chloro-2-oxo-3-[(2-phenylethyl)amino]-1(2H)-pyrazinyl]-N-cyclopropyl-4-methyl-benzamide]", "pIC50": 6.7},
      {"smiles": "Cc1ccc(C(=O)NC2CC2)cc1-n1ccnc(NCc2ccccc2C(F)(F)F)c1=O", "note": "[Example 79, N-Cyclopropyl-4-methyl-3-[2-oxo-3-[[[2-(trifluoromethyl)phenyl]methyl]amino]-1(2H)-pyrazinyl]-benzamide]", "pIC50": 7.7},
      {"smiles": "Cc1ccc(C(=O)NC2CC2)cc1-n1ccnc(NCc2cccc3c2OCCO3)c1=O", "note": "[Example 91, N-Cyclopropyl-3-[3-[[(2,3-dihydro-1,4-benzodioxin-5-yl)methyl]amino]-2-oxo-1(2H)-pyrazinyl]-4-methyl-benzamide]", "pIC50": 7.9},
      {"smiles": "Cc1ccc(C(=O)NC2CC2)cc1-n1ccnc(NC2(c3ccccc3OCCNCCO)CC2)c1=O", "note": "[Example 233, N-Cyclopropyl-3-[3-[[1-[2-[2-[(2-hydroxyethyl)amino]ethoxy]phenyl]cyclopropyl]amino]-2-oxo-1(2H)-pyrazinyl]-4-methyl-benzamide]", "pIC50": 9.9},
      {"smiles": "Cc1ccc(C(=O)NC2CC2)cc1-n1ccnc(N[C@@H](c2ccccc2)[C@@H](C)CNCC(C)C)c1=O", "note": "[Example 182, N-Cyclopropyl-4-methyl-3-[3-[[(1R,2S)-2-methyl-3-[(2-methylpropyl)amino]-1-phenylpropyl]amino]-2-oxo-1(2H)-pyrazinyl]-benzamide]", "pIC50": 9},
      {"smiles": "Cc1ccc(C(=O)NC2CC2)cc1-n1ccnc(NCCc2cccc(O)c2)c1=O", "note": "[Example 71, N-Cyclopropyl-3-[3-[[2-(3-hydroxyphenyl)ethyl]amino]-2-oxo-1(2H)-pyrazinyl]-4-methyl-benzamide]", "pIC50": 6.8},
      {"smiles": "Cc1ccc(C(=O)NC2CC2)cc1-n1ccnc(N[C@@H](c2ccccc2)[C@@H](C)CNC(C)(C)C)c1=O", "note": "[Example 153, N-Cyclopropyl-3-[3-[[(1R,2S)-3-[(1,1-dimethylethyl)amino]-2-methyl-1-phenylpropyl]amino]-2-oxo-1(2H)-pyrazinyl]-4-methyl-benzamide]", "pIC50": 9.2},
      {"smiles": "CNCCOc1ccccc1C(C)(C)Nc1nccn(-c2cc(C(=O)N3CCC3)ccc2C)c1=O", "note": "[Example 221, 1-[4-Methyl-3-[3-[[1-methyl-1-[2-[2-(methylamino)ethoxy]phenyl]ethyl]amino]-2-oxo-1(2H)-pyrazinyl]benzoyl]-azetidine]", "pIC50": 6.7}
    ]},
    {"system": "not listed separately", "assay": "GVS (Dynamic Vapour Sorption) water uptake of crystalline forms", "type": "physicochemical", "conditions": "at 80% RH; ±0.2%", "protocol": "(§1) GVS profiles were measured using a Dynamic Vapour Sorption DVS-1 instrument. The solid sample ca. 1-5 mg was placed into a glass vessel and the weight of the sample was recorded during a dual cycle step method (40 to 90 to 0 to 90 to 0% relative humidity (RH), in steps of 10% RH).", "units": {"GVS weight increase": "% w/w"}, "values": [
      {"smiles": "CNCCOc1ccccc1C(C)(C)Nc1nccn(-c2cc(C(=O)NC3CC3)ccc2C)c1=O", "note": "[example 163 crystalline form B, N-Cyclopropyl-4-methyl-3-[3-[[1-methyl-1-[2-[2-(methylamino)ethoxy]phenyl]ethyl]amino]-2-oxo-1(2H)-pyrazinyl]-benzamide Crystalline Form B]", "GVS weight increase": 4.3},
      {"smiles": "CNCCOc1ccccc1C(C)(C)Nc1nccn(-c2cc(C(=O)NC3CC3)ccc2C)c1=O", "note": "[example 163 crystalline form C, N-Cyclopropyl-4-methyl-3-[3-[[1-methyl-1-[2-[2-(methylamino)ethoxy]phenyl]ethyl]amino]-2-oxo-1(2H)-pyrazinyl]-benzamide Crystalline Form C]", "GVS weight increase": 0.3},
      {"smiles": "CNCCOc1ccccc1C(C)(C)Nc1nccn(-c2cc(C(=O)NC3CC3)ccc2C)c1=O.Cc1ccc(S(=O)(=O)O)cc1", "note": "[N-Cyclopropyl-4-methyl-3-[3-[[1-methyl-1-[2-[2-(methylamino)ethoxy]phenyl]ethyl]amino]-2-oxo-1(2H)-pyrazinyl]-benzamide Tosylate Salt Crystalline Form A]", "GVS weight increase": 0.1},
      {"smiles": "CNCCOc1ccccc1C(C)(C)Nc1nccn(-c2cc(C(=O)NC3CC3)ccc2C)c1=O", "note": "[example 163 crystalline form A, N-Cyclopropyl-4-methyl-3-[3-[[1-methyl-1-[2-[2-(methylamino)ethoxy]phenyl]ethyl]amino]-2-oxo-1(2H)-pyrazinyl]-benzamide Crystalline Form A]", "GVS weight increase": 5}
    ]},
    {"system": "not listed separately", "assay": "GVS (Dynamic Vapour Sorption) water uptake of crystalline forms", "type": "physicochemical", "conditions": "between RH of 0%-80%; ±0.2%", "protocol": "as §1", "units": {"water uptake as measured by GVS": "%"}, "values": [
      {"smiles": "CNCCOc1ccccc1C1(Nc2nccn(-c3cc(C(=O)NC4CC4)cc(F)c3C)c2=O)CC1", "note": "[example 259 crystalline form A, N-Cyclopropyl-3-fluoro-4-methyl-5-[3-[[1-[2-[2-(methylamino)ethoxy]phenyl]cyclopropyl]amino]-2-oxo-1(2H)-pyrazinyl]-benzamide Crystalline Form A]", "water uptake as measured by GVS": 0.4},
      {"smiles": "Cc1c(F)cc(C(=O)NC2CC2)cc1-n1ccnc(NC2(c3ccccc3OCCNCCO)CC2)c1=O", "note": "[example 260 crystalline form A, N-Cyclopropyl-3-fluoro-5-[3-[[1-[2-[2-[(2-hydroxyethyl)amino]ethoxy]phenyl]cyclopropyl]amino]-2-oxo-1(2H)-pyrazinyl]-4-methyl-benzamide Crystalline Form A]", "water uptake as measured by GVS": 1.2},
      {"smiles": "CNCCOc1ccccc1C1(Nc2nccn(-c3cc(C(=O)NC4CC4)ccc3C)c2=O)CC1", "note": "[example 167 Crystalline Form A, N-Cyclopropyl-4-methyl-3-[3-[[1-[2-[2-(methylamino)ethoxy]phenyl]cyclopropyl]amino]-2-oxo-1(2H)-pyrazinyl]-benzamide Crystalline Form A]", "water uptake as measured by GVS": 1}
    ]}
  ]
}
